{"source": "paper PMC6851324", "about": "“Design and development of stapled transmembrane peptides that disrupt the activity of G-protein–coupled receptor oligomers” (The Journal of Biological Chemistry, 2019)", "key": {"[1]": {"experiment": "CD helicity measurements", "assay_type": "physicochemical", "details": "30–50 μM peptide in MilliQ water, 20 °C, 1-mm path length, three scans 195–260 nm, % helicity from molar ellipticity at 222 nm", "description": "Figure 4. Biophysical analysis of stapled peptides. A, amino acid sequence alignment of the targeted TM regions and disrupting peptides. Cys residues are in the reduced state. Blue bridges indicate the stapled amino acid residues. […] Yields, purity, and MALDI-TOF data are shown for the stapled peptides and negative control. B, CD analysis of 30–50 μM peptides at 20 °C. For proteolytic stability studies, the peptide solution (55.5 μM for trypsin and chymotrypsin and 11.1 μM for serum) was incubated in the presence of 0.55 μg/ml trypsin from porcine pancreas (E), α-chymotrypsin (F), or mouse serum (G) at 37 °C for the indicated times (indicated on the x axis). Data are mean ± S.E. (error bars) (n = 3) percentage of intact peptide normalized to t = 0. Proteolytic half-lives and putative cleavage sites (predicted using the Expasy bioinformatics server's model with a 50% probability of cleavage) are indicated at the bottom of each panel. Positive correlation between helicity and half-life in trypsin/chymotrypsin (C) or serum (D) was determined by two-tailed Pearson's correlation test. […]\nCD spectra were recorded on a Jasco J-810 with a total of three scans from 195 to 260 nm in 0.5-nm increments. […]\nThe Jasco J-810 generates the raw output in ellipticity and is measured in millidegrees. […] Once the precise concentration was confirmed, the molar ellipticity [θ] was calculated as follows. […]\nWhere c is the sample concentration (μM), l is the path length (mm), n is the number of peptide bonds (calculated as amino acid residues − 1), and θobs is the observed ellipticity (millidegrees). […]"}, "[2]": {"biological_target": "T1, trypsin from porcine pancreas (Sus scrofa, UniProt P00761)", "T1 construct": "purchased Sigma; host or cells: porcine pancreas", "T1 sequence (P00761 9-231)": "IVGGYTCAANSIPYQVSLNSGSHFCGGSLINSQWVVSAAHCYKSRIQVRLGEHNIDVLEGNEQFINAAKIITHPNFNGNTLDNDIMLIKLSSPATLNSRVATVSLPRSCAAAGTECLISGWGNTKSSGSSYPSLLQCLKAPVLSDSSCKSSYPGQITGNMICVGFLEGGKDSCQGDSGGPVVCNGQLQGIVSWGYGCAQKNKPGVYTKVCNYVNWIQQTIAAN", "experiment": "Proteolytic stability against trypsin", "assay_type": "in vitro ADME", "details": "pig", "description": "(§1) Figure 4. Biophysical analysis of stapled peptides. A, amino acid sequence alignment of the targeted TM regions and disrupting peptides. Cys residues are in the reduced state. Blue bridges indicate the stapled amino acid residues. […] Yields, purity, and MALDI-TOF data are shown for the stapled peptides and negative control. B, CD analysis of 30–50 μM peptides at 20 °C. For proteolytic stability studies, the peptide solution (55.5 μM for trypsin and chymotrypsin and 11.1 μM for serum) was incubated in the presence of 0.55 μg/ml trypsin from porcine pancreas (E), α-chymotrypsin (F), or mouse serum (G) at 37 °C for the indicated times (indicated on the x axis). Data are mean ± S.E. (error bars) (n = 3) percentage of intact peptide normalized to t = 0. Proteolytic half-lives and putative cleavage sites (predicted using the Expasy bioinformatics server's model with a 50% probability of cleavage) are indicated at the bottom of each panel. Positive correlation between helicity and half-life in trypsin/chymotrypsin (C) or serum (D) was determined by two-tailed Pearson's correlation test. TEXT PRINTED IN THE PICTURE: (B) TM7-TAT: Ellipticity (%): 3.4 | (B) TM6-TAT: Ellipticity (%): 18.3 | (B) TM5-TAT: Ellipticity (%): 20.9 | (B) 8: Ellipticity (%): 58.3 | (B) 9: Ellipticity (%): 46.4 | (B) 10: Ellipticity (%): 36.8 | (B) 11: Ellipticity (%): 46 | (E) TM7-TAT: Half-life (min): 21; #Cleavage sites: 8 | (E) TM6-TAT: Half-life (min): 40; #Cleavage sites: 7 | (E) TM5-TAT: Half-life (min): 33; #Cleavage sites: 8 | (E) 8: Half-life (min): 307; #Cleavage sites: 0 | (E) 9: Half-life (min): 178; #Cleavage sites: 0 | (E) 10: Half-life (min): 75; #Cleavage sites: 6 | (E) 11: Half-life (min): 84; #Cleavage sites: 0 | (F) TM7-TAT: Half-life (min): 22; #Cleavage sites: 6 | (F) TM6-TAT: Half-life (min): 32; #Cleavage sites: 7 | (F) TM5-TAT: Half-life (min): 28; #Cleavage sites: 7 | (F) 8: Half-life (min): 425; #Cleavage sites: 4 | (F) 9: Half-life (min): 198; #Cleavage sites: 3 | (F) 10: Half-life (min): 63; #Cleavage sites: 2 | (F) 11: Half-life (min): 79; #Cleavage sites: 4 | (G) TM7-TAT: Half-life (hours): 0.46 | (G) TM6-TAT: Half-life (hours): 0.55 | (G) TM5-TAT: Half-life (hours): 0.81 | (G) 8: Half-life (hours): ≥18 | (G) 9: Half-life (hours): 14.7 | (G) 10: Half-life (hours): 11.7 | (G) 11: Half-life (hours): 5.3 DOUBTS OF THE COPYIST ABOUT THIS PICTURE: Panel A table (Yield, Rt, Purity, [M+H+] calc., [M+H+] Peak Found for 7-11) left out as synthesis and mass-spectrum characterisation data; uncertain whether [M+H+] calc. should count as a molecular weight\n(§2) Dose–response curves were fitted using a four-parameter logistic nonlinear regression mode. Peptide stability data were fitted using a nonlinear regression mode for dissociation kinetics. All statistical tests, curve fitting, and graphing were performed using GraphPad Prism 8 (GraphPad Software, La Jolla, CA).\nTo 100 μl of peptide solution (100 μM, dissolved in ammonium bicarbonate buffer, pH 7.5), 60 μl of ammonium bicarbonate buffer (pH 7.5) was added, together with 20 μl of temperature-equilibrated (37 ± 1 °C) trypsin (5 μg/ml) from porcine pancreas (Sigma, 13,000–20,000 BAEE units/mg of protein). Peptides were incubated for 15, 30, 60, 120, 240, and 480 min, and then MeOH (HPLC Grade) + 0.05% TFA was added. The samples were then centrifuged (15,000 rpm), and the supernatant was analyzed, using Fmoc-Gly (10 μl, 0.2 mM) as an internal standard. The digestion at each time point was repeated three times to give the average values along with S.D. The amount of intact peptide that remained in the mixture was quantified by RP-HPLC. The experiment was repeated twice on different days."}, "[3]": {"biological_target": "T2, α-chymotrypsin from bovine pancreas (Bos taurus, UniProt P00766, DEL14-15/DEL147-148)", "T2 construct": "purchased Sigma Type II; host or cells: bovine pancreas", "experiment": "Proteolytic stability against chymotrypsin", "assay_type": "in vitro ADME", "details": "cattle", "description": "as §1, §2\nTo 100 μl of peptide solution (100 μM, dissolved in ammonium bicarbonate buffer, pH 7.5), 60 μl of ammonium bicarbonate buffer (pH 7.5) was added, together with 20 μl of temperature-equilibrated (37 ± 1 °C) α-chymotrypsin (5 μg/ml) from bovine pancreas (Sigma, Type II, activity > 40 units/mg protein). Peptides were incubated for 15, 30, 60, 120, 240, and 480 min, and then MeOH (HPLC grade) + 0.05% TFA was added. The samples were then centrifuged (15,000 rpm), and supernatant was analyzed in a similar manner as described above. The experiment was repeated twice on different days."}, "[4]": {"details": "isolated enzyme trypsin, 55.5 μM peptide, 0.55 μg/ml trypsin from porcine pancreas, ammonium bicarbonate buffer pH 7.5, 37 °C, 15–480 min, intact peptide by RP-HPLC (Fmoc-Gly internal standard), n = 3, nonlinear regression fit, read-out: Half-life (min), trypsin"}, "[5]": {"details": "isolated enzyme chymotrypsin, 55.5 μM peptide, 0.55 μg/ml α-chymotrypsin from bovine pancreas, ammonium bicarbonate buffer pH 7.5, 37 °C, 15–480 min, intact peptide by RP-HPLC, n = 3, nonlinear regression fit, read-out: Half-life (min), α-chymotrypsin"}}, "note": "Read-outs that look alike come from different tables or passages of the source. Where a SMILES comes first, the peptide text is derived from it. Bridges are numbered along the chain shown (N, C = ends). Where no end group is shown, it is not given here. [ ]: non-standard residue; d: D form. S5 = C=CCCC[C@](C)(N)C(=O)O; Nle = CCCC[C@H](N)C(=O)O", "data": [{"compound": "CCCC[C@H](NC(=O)[C@]1(C)CCC/C=C\\CCC[C@](C)(NC(=O)[C@H](Cc2ccccc2)NC(=O)[C@H](CC(C)C)NC(=O)[C@H](CC(C)C)NC(=O)[C@H](CC(C)C)NC(=O)[C@@H](N)C(C)C)C(=O)N[C@@H](C(C)C)C(=O)N[C@@H](Cc2ccc(O)cc2)C(=O)N[C@@H](C)C(=O)N1)C(=O)N[C@@H](Cc1ccc(O)cc1)C(=O)N[C@H](C(=O)N[C@@H](CC(C)C)C(=O)N[C@@H](Cc1c[nH]c2ccccc12)C(N)=O)[C@@H](C)CC", "note": "[Peptide 8] (H-VLLLF[S5]VYA[S5][Nle]YILW-NH2; staple (Z) 6-10)", "values": [{"measurement": "Ellipticity (%) (helicity by CD)", "setting": "[1]", "result": 58.3, "unit": "%"}, {"measurement": "half-life at 55.5 μM", "setting": "[2]; trypsin from porcine pancreas, pH 7.5, trypsin 0.55 μg/ml, 37 °C, pH 7.5, approximate value of running text, read-out: half-life in trypsin as stated in text (converted)", "result": "~300", "unit": "min"}, {"measurement": "half-life at 55.5 μM", "setting": "[2]; 55.5 μM peptide, 0.55 μg/ml trypsin from porcine pancreas, ammonium bicarbonate buffer pH 7.5, 37 °C, 15–480 min, intact peptide by RP-HPLC (Fmoc-Gly internal standard), n = 3, nonlinear regression fit, read-out: Half-life (min), trypsin", "result": 307, "unit": "min"}, {"measurement": "half-life at 55.5 μM", "setting": "[3]; 55.5 μM peptide, 0.55 μg/ml α-chymotrypsin from bovine pancreas, ammonium bicarbonate buffer pH 7.5, 37 °C, 15–480 min, intact peptide by RP-HPLC, n = 3, nonlinear regression fit, read-out: Half-life (min), α-chymotrypsin", "result": 425, "unit": "min"}]}, {"compound": "C=CCCC[C@](C)(NC(=O)[C@H](Cc1ccc(O)cc1)NC(=O)[C@@H](N)C(C)C)C(=O)N[C@@H](Cc1ccc(O)cc1)C(=O)N[C@@H](CCCC)C(=O)N[C@@](C)(CCCC=C)C(=O)N[C@H](C(=O)N[C@@H](CC(C)C)C(=O)N[C@@H](Cc1c[nH]c2ccccc12)C(N)=O)[C@@H](C)CC", "note": "[Peptide 11] (H-VY[S5]Y[Nle][S5]ILW-NH2)", "values": [{"measurement": "Ellipticity (%) (helicity by CD)", "setting": "[1]", "result": 46.0, "unit": "%"}, {"measurement": "half-life at 55.5 μM", "setting": "[2]; isolated enzyme trypsin, pH 7.5, Half-life (min), trypsin", "result": 84, "unit": "min"}, {"measurement": "half-life at 55.5 μM", "setting": "[3]; isolated enzyme chymotrypsin, pH 7.5", "result": 79, "unit": "min"}]}, {"compound": "ETYLMFWIGVTSVLLLFIVYAYMYILWGRKKRRQRRR [TM5-TAT, reference compound]", "values": [{"measurement": "Ellipticity (%) (helicity by CD)", "setting": "[1]; listed as CB1 TM5-TAT", "result": "< 20", "unit": "%"}, {"measurement": "half-life at 55.5 μM", "setting": "[2]; [4]", "result": 33, "unit": "min"}, {"measurement": "half-life at 55.5 μM", "setting": "[3]; [5]", "result": 28, "unit": "min"}]}, {"compound": "GRKKRRQRRRKTLVLILVVLIICWGPLLAIMVY [TM6-TAT, reference compound]", "values": [{"measurement": "Ellipticity (%) (helicity by CD)", "setting": "[1]", "result": "< 20", "unit": "%"}, {"measurement": "half-life at 55.5 μM", "setting": "[2]; [4]", "result": 40, "unit": "min"}, {"measurement": "half-life at 55.5 μM", "setting": "[3]; [5]", "result": 32, "unit": "min"}]}]}
